This is an account of results in patent EP4467141A1, “PYRAZOLO-QUINOLINES AS SELECTIVE INHIBITORS OF GENOTOXIC STRESS-INDUCED IKK/NF- KB PATHWAYS FOR CANCER THERAPY” (Max-Delbrück-Centrum für Molekulare Medizin in der …, priority 2023, dated 2024).

What all share (experiment): Kinase panel study
Type in all cases: biochemical
Common to all, as to conditions: read-out: Percentage of inhibition; for inhibition at 1 µM: 1000nM; for inhibition at 10 µM: 10000nM

In one experiment the target is T1, PAK1 (Homo sapiens, UniProt Q13153).
T1 construct: purchased Thermo Fisher Scientific
Put shortly: (§1)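 Percent inhibition of each kinase by the test compound, given at either 1 µM or 10 µM, came from a contracted panel run by ZLyte or Adapta protocol.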

The next experiment has as its target T2, LTK (TYK1) (Homo sapiens, UniProt P29376).
T2 construct: purchased Thermo Fisher Scientific
Put shortly: as §1

The target of the next experiment is T3, PRKCB2 (PKC beta II) (Homo sapiens, UniProt P05771).
T3 construct: purchased Thermo Fisher Scientific
T3 sequence (P05771 1-673 isoform P05771-2): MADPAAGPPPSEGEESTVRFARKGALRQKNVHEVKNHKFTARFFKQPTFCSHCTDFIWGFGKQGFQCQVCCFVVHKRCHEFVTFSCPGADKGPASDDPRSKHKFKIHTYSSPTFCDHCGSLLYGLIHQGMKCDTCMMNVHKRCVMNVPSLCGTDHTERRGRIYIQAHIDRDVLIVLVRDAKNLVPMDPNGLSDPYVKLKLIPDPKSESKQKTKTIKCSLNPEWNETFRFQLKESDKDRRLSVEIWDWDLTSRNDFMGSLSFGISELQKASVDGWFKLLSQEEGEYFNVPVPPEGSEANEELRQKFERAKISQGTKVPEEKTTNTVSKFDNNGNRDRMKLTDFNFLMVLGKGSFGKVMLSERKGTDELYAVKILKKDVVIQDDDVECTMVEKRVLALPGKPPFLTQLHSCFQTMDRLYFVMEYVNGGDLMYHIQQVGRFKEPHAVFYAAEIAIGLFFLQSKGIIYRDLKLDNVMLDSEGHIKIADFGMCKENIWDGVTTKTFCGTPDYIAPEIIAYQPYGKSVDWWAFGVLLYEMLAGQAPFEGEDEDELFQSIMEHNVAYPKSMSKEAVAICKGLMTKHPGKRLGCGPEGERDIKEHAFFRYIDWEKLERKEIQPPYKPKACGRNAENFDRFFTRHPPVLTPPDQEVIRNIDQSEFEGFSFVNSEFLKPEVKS
Put shortly: as §1

A further experiment addresses T4, TEK (TIE2) Y897S (Homo sapiens, UniProt Q02763, Y897S).
T4 construct: purchased Thermo Fisher Scientific
The gist of the method: as §1

A further experiment addresses T5, BRSK1 (SAD1) (Homo sapiens, UniProt Q8TDC3).
T5 construct: purchased Thermo Fisher Scientific
T5 sequence (Q8TDC3 1-778): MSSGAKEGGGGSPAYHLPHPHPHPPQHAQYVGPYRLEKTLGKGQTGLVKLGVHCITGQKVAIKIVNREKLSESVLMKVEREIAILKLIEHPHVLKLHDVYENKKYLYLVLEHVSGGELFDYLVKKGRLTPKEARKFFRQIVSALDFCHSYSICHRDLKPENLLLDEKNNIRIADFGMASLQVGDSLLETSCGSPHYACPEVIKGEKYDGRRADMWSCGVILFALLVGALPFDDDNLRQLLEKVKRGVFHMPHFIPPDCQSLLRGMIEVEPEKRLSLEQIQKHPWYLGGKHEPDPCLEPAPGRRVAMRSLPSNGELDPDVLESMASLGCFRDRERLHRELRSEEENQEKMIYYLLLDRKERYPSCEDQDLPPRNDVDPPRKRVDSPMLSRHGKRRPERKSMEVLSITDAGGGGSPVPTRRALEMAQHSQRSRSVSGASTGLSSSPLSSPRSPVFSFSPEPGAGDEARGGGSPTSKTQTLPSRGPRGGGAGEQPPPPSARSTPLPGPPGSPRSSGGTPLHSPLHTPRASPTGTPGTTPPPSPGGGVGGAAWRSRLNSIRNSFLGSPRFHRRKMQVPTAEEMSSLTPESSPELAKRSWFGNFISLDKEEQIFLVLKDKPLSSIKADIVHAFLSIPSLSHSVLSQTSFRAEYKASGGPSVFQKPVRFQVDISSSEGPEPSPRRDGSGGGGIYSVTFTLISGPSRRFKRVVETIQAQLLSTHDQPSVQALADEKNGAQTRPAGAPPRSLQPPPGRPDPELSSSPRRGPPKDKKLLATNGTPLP
Put shortly:
as §1

The target of the next experiment is T6, AMPKA2/B1/G1 (Homo sapiens, UniProt P54646).
T6 construct: purchased Thermo Fisher Scientific
T6 sequence (P54646 whole entry): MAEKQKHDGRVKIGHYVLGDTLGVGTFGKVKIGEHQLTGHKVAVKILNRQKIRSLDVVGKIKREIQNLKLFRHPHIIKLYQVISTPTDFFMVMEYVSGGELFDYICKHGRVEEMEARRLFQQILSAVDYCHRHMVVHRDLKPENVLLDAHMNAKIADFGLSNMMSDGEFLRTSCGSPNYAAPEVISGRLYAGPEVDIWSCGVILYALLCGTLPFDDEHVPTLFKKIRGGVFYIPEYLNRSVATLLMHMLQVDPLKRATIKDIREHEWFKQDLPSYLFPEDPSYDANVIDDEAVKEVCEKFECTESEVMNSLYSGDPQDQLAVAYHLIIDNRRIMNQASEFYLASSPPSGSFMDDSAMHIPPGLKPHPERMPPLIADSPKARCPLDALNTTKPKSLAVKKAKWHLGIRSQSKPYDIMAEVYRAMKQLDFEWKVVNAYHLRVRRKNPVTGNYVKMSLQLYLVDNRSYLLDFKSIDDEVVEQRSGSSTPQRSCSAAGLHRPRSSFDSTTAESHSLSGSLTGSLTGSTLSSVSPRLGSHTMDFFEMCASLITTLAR
T6 sequence (Q9Y478 whole entry partner): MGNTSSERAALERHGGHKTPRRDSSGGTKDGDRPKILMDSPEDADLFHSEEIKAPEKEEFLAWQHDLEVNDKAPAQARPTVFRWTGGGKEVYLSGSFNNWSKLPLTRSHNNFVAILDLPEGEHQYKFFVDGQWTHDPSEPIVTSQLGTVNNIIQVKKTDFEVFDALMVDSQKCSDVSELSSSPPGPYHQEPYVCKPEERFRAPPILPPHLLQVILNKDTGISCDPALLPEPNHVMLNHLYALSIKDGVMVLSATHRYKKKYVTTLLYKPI
T6 sequence (P54619 whole entry partner): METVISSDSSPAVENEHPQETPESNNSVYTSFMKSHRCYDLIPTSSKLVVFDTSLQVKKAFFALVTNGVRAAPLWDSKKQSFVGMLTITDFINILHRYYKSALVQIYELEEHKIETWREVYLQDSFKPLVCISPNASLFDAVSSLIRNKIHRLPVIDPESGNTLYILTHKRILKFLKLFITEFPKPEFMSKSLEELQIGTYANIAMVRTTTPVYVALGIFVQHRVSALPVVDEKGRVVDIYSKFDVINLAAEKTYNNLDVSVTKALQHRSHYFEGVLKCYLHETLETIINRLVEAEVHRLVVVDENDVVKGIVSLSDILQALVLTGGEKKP
The gist of the method: as §1

In a further experiment the target is T7, ADRBK1 (GRK2) (Homo sapiens, UniProt P25098).
T7 construct: purchased Thermo Fisher Scientific
T7 sequence (P25098 1-689): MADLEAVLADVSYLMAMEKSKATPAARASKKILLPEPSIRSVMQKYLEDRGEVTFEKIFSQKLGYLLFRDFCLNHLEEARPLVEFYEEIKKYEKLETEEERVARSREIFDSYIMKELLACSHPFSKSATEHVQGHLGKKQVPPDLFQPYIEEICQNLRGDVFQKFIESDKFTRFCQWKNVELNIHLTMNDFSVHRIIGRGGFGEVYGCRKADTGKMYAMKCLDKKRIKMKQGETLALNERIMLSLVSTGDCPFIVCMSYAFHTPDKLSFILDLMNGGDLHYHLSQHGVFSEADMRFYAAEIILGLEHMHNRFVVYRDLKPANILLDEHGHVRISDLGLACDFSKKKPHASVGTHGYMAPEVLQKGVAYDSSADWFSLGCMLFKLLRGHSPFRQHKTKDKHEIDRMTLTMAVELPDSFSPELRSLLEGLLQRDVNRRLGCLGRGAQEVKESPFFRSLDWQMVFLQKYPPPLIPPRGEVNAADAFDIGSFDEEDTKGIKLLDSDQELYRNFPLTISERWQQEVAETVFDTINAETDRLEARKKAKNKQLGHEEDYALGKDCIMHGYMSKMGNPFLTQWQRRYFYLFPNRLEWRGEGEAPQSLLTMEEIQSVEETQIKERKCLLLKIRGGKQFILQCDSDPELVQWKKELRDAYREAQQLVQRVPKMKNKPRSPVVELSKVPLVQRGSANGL
Put shortly:
as §1

The target in a further experiment is T8, CSNK1A1 (CK1 alpha 1) (Homo sapiens, UniProt P48729).
T8 construct: purchased Thermo Fisher Scientific
T8 sequence (P48729 whole entry): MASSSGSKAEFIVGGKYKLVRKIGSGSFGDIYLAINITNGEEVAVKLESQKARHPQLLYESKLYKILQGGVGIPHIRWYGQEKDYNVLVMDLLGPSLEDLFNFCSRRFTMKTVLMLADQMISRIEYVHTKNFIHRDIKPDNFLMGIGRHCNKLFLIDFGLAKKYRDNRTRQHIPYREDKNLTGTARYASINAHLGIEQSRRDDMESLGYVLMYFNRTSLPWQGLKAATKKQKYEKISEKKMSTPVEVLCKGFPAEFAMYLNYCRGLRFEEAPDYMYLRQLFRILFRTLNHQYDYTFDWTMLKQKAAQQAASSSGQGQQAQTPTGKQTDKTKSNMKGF
Put shortly:
as §1

A further experiment concerns the target T9, MET M1250T (Homo sapiens, UniProt P08581, M1250T).
T9 construct: purchased Thermo Fisher Scientific
The gist of the method: as §1

The target of a further experiment is T10, CSNK1G1 (CK1 gamma 1) (Homo sapiens, UniProt Q9HCP0).
T10 construct: purchased Thermo Fisher Scientific
T10 sequence (Q9HCP0 whole entry): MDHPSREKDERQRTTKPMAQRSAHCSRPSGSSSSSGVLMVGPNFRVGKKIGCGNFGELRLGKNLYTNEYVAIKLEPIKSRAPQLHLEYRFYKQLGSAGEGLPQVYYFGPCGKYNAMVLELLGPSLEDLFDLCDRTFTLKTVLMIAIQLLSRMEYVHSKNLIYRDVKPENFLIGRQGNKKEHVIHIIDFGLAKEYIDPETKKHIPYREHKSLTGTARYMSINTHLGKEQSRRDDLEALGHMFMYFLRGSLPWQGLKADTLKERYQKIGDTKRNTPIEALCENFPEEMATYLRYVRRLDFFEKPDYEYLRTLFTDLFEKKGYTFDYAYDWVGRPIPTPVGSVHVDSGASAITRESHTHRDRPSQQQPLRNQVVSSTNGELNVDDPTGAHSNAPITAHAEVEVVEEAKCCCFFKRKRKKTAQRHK
The gist of the method:
as §1

T4 sequence (Q02763 23-1124 Y897S): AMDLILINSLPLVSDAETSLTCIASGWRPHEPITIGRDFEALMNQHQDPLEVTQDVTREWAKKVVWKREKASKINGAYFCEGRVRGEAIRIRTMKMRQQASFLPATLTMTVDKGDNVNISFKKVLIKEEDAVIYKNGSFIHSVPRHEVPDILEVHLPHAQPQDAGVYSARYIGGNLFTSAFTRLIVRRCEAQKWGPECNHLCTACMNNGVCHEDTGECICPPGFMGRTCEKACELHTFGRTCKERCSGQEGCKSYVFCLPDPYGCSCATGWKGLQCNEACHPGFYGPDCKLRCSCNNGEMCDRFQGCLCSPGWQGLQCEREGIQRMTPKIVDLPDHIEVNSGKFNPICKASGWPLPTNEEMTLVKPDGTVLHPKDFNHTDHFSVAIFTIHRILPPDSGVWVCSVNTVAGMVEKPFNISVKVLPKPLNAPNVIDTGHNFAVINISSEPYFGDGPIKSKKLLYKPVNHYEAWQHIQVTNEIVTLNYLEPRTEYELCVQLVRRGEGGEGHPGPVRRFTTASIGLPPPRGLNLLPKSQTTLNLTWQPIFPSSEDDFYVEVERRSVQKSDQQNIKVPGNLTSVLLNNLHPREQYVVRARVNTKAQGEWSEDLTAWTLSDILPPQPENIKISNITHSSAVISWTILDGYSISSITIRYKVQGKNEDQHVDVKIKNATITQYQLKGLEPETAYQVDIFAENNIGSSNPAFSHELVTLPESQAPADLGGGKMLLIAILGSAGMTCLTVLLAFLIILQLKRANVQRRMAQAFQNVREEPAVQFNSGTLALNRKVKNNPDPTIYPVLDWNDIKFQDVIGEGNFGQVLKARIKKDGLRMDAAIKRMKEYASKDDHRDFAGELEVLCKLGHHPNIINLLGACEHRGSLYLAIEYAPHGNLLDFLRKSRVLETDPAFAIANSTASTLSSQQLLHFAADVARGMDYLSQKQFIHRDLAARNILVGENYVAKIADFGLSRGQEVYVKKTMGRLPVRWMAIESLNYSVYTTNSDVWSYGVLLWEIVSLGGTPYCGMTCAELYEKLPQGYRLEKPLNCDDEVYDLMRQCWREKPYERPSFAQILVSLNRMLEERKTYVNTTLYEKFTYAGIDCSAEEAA
T2 sequence (P29376 17-864): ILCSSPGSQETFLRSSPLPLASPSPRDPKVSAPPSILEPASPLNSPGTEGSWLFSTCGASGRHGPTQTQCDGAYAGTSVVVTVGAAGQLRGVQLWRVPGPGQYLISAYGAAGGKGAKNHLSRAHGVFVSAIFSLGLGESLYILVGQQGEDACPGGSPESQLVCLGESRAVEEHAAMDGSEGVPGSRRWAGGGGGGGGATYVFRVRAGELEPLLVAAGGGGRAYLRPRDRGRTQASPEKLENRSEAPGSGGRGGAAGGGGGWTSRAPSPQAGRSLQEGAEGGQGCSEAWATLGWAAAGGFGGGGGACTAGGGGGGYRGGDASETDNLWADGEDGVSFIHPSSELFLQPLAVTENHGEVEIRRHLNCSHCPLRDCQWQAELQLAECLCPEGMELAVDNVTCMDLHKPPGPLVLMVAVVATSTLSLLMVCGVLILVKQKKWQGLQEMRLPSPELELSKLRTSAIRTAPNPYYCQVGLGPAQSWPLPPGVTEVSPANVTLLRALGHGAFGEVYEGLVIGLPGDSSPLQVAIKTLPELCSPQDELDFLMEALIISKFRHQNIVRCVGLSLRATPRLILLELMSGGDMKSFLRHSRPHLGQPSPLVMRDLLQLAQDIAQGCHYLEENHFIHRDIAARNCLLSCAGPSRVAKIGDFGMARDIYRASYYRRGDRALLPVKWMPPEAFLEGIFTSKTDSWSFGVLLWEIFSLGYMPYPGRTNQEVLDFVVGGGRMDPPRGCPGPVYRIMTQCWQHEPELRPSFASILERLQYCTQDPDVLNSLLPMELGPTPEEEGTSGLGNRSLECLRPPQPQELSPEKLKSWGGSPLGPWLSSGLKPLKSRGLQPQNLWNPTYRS

As for `COc1ccc2c(c1OC)c(=O)n1c3ccc(O)cc3c3ccnc2c31` [MW01, 5-Hydroxy-10,11-dimethoxy-9H-benzo[c]indolo[3,2,1-ij][1,5]naphthyridin-9-one], the inhibition (in general, the drop in the measured response relative to a control, in per cent) at 1 µM was 10% on PAK1; 19% at LTK (TYK1); 11% on PRKCB2 (PKC beta II); -14% on TEK (TIE2) Y897S; 0% on BRSK1 (SAD1); 8% at AMPKA2/B1/G1. In addition, the inhibition at 1 µM on ADRBK1 (GRK2) stood at 8%; at CSNK1A1 (CK1 alpha 1) it was 5%; on MET M1250T it was 19%; at CSNK1G1 (CK1 gamma 1), 5%. Also, the inhibition at 10 µM on PAK1 is 22%; on LTK (TYK1) it was 44%; at PRKCB2 (PKC beta II), 14%; at TEK (TIE2) Y897S, -10%; at BRSK1 (SAD1), 6%; on AMPKA2/B1/G1, 32%. Moreover, the inhibition at 10 µM on ADRBK1 (GRK2) is 17%; at CSNK1A1 (CK1 alpha 1) it was 17%; at MET M1250T it was 42%; on CSNK1G1 (CK1 gamma 1), 12%.
Consider `COc1ccc2cc3c(N)nn(C(=O)c4cccc(N(C)C)c4)c3nc2c1` [MW05, (3-Amino-7-methoxypyrazolo[3,4-b]quinolin-1-yl)-[3-(dimethylamino)phenyl]methanone], for which the inhibition at 1 µM on PAK1 is 16%; at LTK (TYK1), 7%; on PRKCB2 (PKC beta II), 9%; on TEK (TIE2) Y897S, -18%; at BRSK1 (SAD1), -1%; at AMPKA2/B1/G1, 5%. Also, the inhibition at 1 µM on ADRBK1 (GRK2) is -1%; on CSNK1A1 (CK1 alpha 1), 2%; on MET M1250T, 1%; on CSNK1G1 (CK1 gamma 1) it was 3%. The inhibition at 10 µM on PAK1 is 2%; at LTK (TYK1), -9%; on PRKCB2 (PKC beta II) it was -5%; on TEK (TIE2) Y897S it was -11%; on BRSK1 (SAD1), -6%; on AMPKA2/B1/G1 it was 0%. Moreover, the inhibition at 10 µM is 4% on ADRBK1 (GRK2), 1% at CSNK1A1 (CK1 alpha 1), -15% on MET M1250T and 6% on CSNK1G1 (CK1 gamma 1).
